Measurements reported in ChEMBL document CHEMBL4145445, “Design, synthesis and biological assessment of new thiazolylhydrazine derivatives as selective and reversible hMAO-A inhibitors” (Eur J Med Chem, 2018).
Values belong to the compound of their own block, whether it stands above or below them.

How the values were obtained:
[1] = biological target: T1, Amine oxidase [flavin-containing] A (Homo sapiens, UniProt P21397); assay: Inhibition of human MAO-A using tyramine hydrochloride as substrate after 30 mins by Amplex Red reagent based horseradish peroxidase enzyme-coupled fluorescence assay
T1 sequence (P21397 whole entry): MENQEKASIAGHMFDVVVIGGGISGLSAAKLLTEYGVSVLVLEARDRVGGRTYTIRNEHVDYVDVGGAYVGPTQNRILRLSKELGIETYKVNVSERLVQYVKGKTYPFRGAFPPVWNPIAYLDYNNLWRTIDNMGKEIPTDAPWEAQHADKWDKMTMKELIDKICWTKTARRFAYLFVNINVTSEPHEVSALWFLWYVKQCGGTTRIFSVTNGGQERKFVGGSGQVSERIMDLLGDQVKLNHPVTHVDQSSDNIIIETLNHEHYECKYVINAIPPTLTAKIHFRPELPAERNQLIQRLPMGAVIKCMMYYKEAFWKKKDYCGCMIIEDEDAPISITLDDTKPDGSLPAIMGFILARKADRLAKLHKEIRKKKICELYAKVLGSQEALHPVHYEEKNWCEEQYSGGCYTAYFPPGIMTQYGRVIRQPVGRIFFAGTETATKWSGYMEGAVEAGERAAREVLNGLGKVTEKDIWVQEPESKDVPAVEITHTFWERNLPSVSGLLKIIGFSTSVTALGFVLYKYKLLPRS

[2] = biological target: T1, Amine oxidase [flavin-containing] A; assay: Inhibition of human MAO-A at 10^-4 to 10^-3 M using tyramine hydrochloride as substrate after 30 mins by Amplex Red reagent based horseradish peroxidase enzyme-coupled fluorescence assay relative to control; settings: 0.5 h
[3] = biological target: T2, Amine oxidase [flavin-containing] B (Homo sapiens, UniProt P27338); assay: Inhibition of human MAO-B at 10^-4 to 10^-3 M using tyramine hydrochloride as substrate after 30 mins by Amplex Red reagent based horseradish peroxidase enzyme-coupled fluorescence assay relative to control; settings: 0.5 h
T2 sequence (P27338 whole entry): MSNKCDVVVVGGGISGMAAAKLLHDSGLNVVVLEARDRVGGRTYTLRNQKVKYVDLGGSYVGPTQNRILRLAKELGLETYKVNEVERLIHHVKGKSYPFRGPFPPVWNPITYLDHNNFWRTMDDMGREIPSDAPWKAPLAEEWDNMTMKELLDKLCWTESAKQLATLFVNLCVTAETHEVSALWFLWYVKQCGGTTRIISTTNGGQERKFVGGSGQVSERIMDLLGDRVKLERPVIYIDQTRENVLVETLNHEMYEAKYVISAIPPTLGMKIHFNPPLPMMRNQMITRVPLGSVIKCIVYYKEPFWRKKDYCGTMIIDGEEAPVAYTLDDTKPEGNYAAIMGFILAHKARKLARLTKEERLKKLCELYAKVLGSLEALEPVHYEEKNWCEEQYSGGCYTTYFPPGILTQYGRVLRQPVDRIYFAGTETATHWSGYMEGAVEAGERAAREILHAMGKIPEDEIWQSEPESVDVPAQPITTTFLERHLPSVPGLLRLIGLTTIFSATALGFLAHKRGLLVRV

Homo sapiens = species on record: Homo sapiens; assay: Selectivity index, ratio of IC50 for human MAO-B to IC50 for human MAO-A
[4] = biological target: T2, Amine oxidase [flavin-containing] B; assay: Inhibition of human MAO-B using tyramine hydrochloride as substrate after 30 mins by Amplex Red reagent based horseradish peroxidase enzyme-coupled fluorescence assay
Salmonella typhimurium [5] = assay: Genotoxicity in Salmonella typhimurium TA98 assessed as increase in revertant colonies at 5 mg/ml in absence of Sprague-Dawley rat liver S9 fraction by Ames test relative to basal level; type: toxicity, organism-based; settings: salmonella enterica subsp. enterica serovar typhimurium
Salmonella typhimurium [6] = assay: Genotoxicity in Salmonella typhimurium TA100 assessed as increase in revertant colonies at 0.156 mg/ml in presence of Sprague-Dawley rat liver S9 fraction by Ames test relative to basal level; type: toxicity, organism-based; settings: salmonella enterica subsp. enterica serovar typhimurium
Salmonella typhimurium [7] = assay: Genotoxicity in Salmonella typhimurium TA98 assessed as increase in revertant colonies at 5 mg/ml in presence of Sprague-Dawley rat liver S9 fraction by Ames test relative to basal level; type: toxicity, organism-based; settings: salmonella enterica subsp. enterica serovar typhimurium
Salmonella typhimurium [8] = assay: Genotoxicity in Salmonella typhimurium TA100 assessed as increase in revertant colonies at 0.156 mg/ml in absence of Sprague-Dawley rat liver S9 fraction by Ames test relative to basal level; type: toxicity, organism-based; settings: salmonella enterica subsp. enterica serovar typhimurium
Salmonella typhimurium [9] = assay: Genotoxicity in Salmonella typhimurium TA98 assessed as increase in revertant colonies at 2.5 mg/ml in absence of Sprague-Dawley rat liver S9 fraction by Ames test relative to basal level; type: toxicity, organism-based; settings: salmonella enterica subsp. enterica serovar typhimurium
Salmonella typhimurium [10] = assay: Genotoxicity in Salmonella typhimurium TA98 assessed as increase in revertant colonies at 0.156 mg/ml in presence of Sprague-Dawley rat liver S9 fraction by Ames test relative to basal level; type: toxicity, organism-based; settings: salmonella enterica subsp. enterica serovar typhimurium
Salmonella typhimurium [11] = assay: Genotoxicity in Salmonella typhimurium TA100 assessed as increase in revertant colonies at 1.25 mg/ml in absence of Sprague-Dawley rat liver S9 fraction by Ames test relative to basal level; type: toxicity, organism-based; settings: salmonella enterica subsp. enterica serovar typhimurium
Salmonella typhimurium [12] = assay: Genotoxicity in Salmonella typhimurium TA100 assessed as increase in revertant colonies at 0.625 mg/ml in absence of Sprague-Dawley rat liver S9 fraction by Ames test relative to basal level; type: toxicity, organism-based; settings: salmonella enterica subsp. enterica serovar typhimurium
Salmonella typhimurium [13] = assay: Genotoxicity in Salmonella typhimurium TA100 assessed as increase in revertant colonies at 1.25 mg/ml in presence of Sprague-Dawley rat liver S9 fraction by Ames test relative to basal level; type: toxicity, organism-based; settings: salmonella enterica subsp. enterica serovar typhimurium
NIH3T3 = assay: Cytotoxicity against mouse NIH/3T3 cells by MTT assay; type: cell-based
Salmonella typhimurium [14] = assay: Genotoxicity in Salmonella typhimurium TA98 assessed as increase in revertant colonies at 2.5 mg/ml in presence of Sprague-Dawley rat liver S9 fraction by Ames test relative to basal level; type: toxicity, organism-based; settings: salmonella enterica subsp. enterica serovar typhimurium
Salmonella typhimurium [15] = assay: Genotoxicity in Salmonella typhimurium TA98 assessed as increase in revertant colonies at 1.25 mg/ml in absence of Sprague-Dawley rat liver S9 fraction by Ames test relative to basal level; type: toxicity, organism-based; settings: salmonella enterica subsp. enterica serovar typhimurium
Salmonella typhimurium [16] = assay: Genotoxicity in Salmonella typhimurium TA100 assessed as increase in revertant colonies at 5 mg/ml in absence of Sprague-Dawley rat liver S9 fraction by Ames test relative to basal level; type: toxicity, organism-based; settings: salmonella enterica subsp. enterica serovar typhimurium
Salmonella typhimurium [17] = assay: Genotoxicity in Salmonella typhimurium TA100 assessed as increase in revertant colonies at 0.3125 mg/ml in presence of Sprague-Dawley rat liver S9 fraction by Ames test relative to basal level; type: toxicity, organism-based; settings: salmonella enterica subsp. enterica serovar typhimurium
Salmonella typhimurium [18] = assay: Genotoxicity in Salmonella typhimurium TA100 assessed as increase in revertant colonies at 2.5 mg/ml in presence of Sprague-Dawley rat liver S9 fraction by Ames test relative to basal level; type: toxicity, organism-based; settings: salmonella enterica subsp. enterica serovar typhimurium
Salmonella typhimurium [19] = assay: Genotoxicity in Salmonella typhimurium TA98 assessed as increase in revertant colonies at 0.625 mg/ml in absence of Sprague-Dawley rat liver S9 fraction by Ames test relative to basal level; type: toxicity, organism-based; settings: salmonella enterica subsp. enterica serovar typhimurium
Salmonella typhimurium [20] = assay: Genotoxicity in Salmonella typhimurium TA100 assessed as increase in revertant colonies at 2.5 mg/ml in absence of Sprague-Dawley rat liver S9 fraction by Ames test relative to basal level; type: toxicity, organism-based; settings: salmonella enterica subsp. enterica serovar typhimurium
Salmonella typhimurium [21] = assay: Genotoxicity in Salmonella typhimurium TA98 assessed as increase in revertant colonies at 0.625 mg/ml in presence of Sprague-Dawley rat liver S9 fraction by Ames test relative to basal level; type: toxicity, organism-based; settings: salmonella enterica subsp. enterica serovar typhimurium
Salmonella typhimurium [22] = assay: Genotoxicity in Salmonella typhimurium TA100 assessed as increase in revertant colonies at 0.3125 mg/ml in absence of Sprague-Dawley rat liver S9 fraction by Ames test relative to basal level; type: toxicity, organism-based; settings: salmonella enterica subsp. enterica serovar typhimurium
Salmonella typhimurium [23] = assay: Genotoxicity in Salmonella typhimurium TA98 assessed as increase in revertant colonies at 0.3125 mg/ml in presence of Sprague-Dawley rat liver S9 fraction by Ames test relative to basal level; type: toxicity, organism-based; settings: salmonella enterica subsp. enterica serovar typhimurium
Salmonella typhimurium [24] = assay: Genotoxicity in Salmonella typhimurium TA98 assessed as increase in revertant colonies at 0.156 mg/ml in absence of Sprague-Dawley rat liver S9 fraction by Ames test relative to basal level; type: toxicity, organism-based; settings: salmonella enterica subsp. enterica serovar typhimurium
Salmonella typhimurium [25] = assay: Genotoxicity in Salmonella typhimurium TA100 assessed as increase in revertant colonies at 5 mg/ml in presence of Sprague-Dawley rat liver S9 fraction by Ames test relative to basal level; type: toxicity, organism-based; settings: salmonella enterica subsp. enterica serovar typhimurium
Salmonella typhimurium [26] = assay: Genotoxicity in Salmonella typhimurium TA98 assessed as increase in revertant colonies at 0.3125 mg/ml in absence of Sprague-Dawley rat liver S9 fraction by Ames test relative to basal level; type: toxicity, organism-based; settings: salmonella enterica subsp. enterica serovar typhimurium
Salmonella typhimurium [27] = assay: Genotoxicity in Salmonella typhimurium TA100 assessed as increase in revertant colonies at 0.625 mg/ml in presence of Sprague-Dawley rat liver S9 fraction by Ames test relative to basal level; type: toxicity, organism-based; settings: salmonella enterica subsp. enterica serovar typhimurium
[28] = biological target: T1, Amine oxidase [flavin-containing] A; assay: Reversible-competitive inhibition of human MAO-A using varying levels of tyramine as substrate after 30 mins by Lineweaver-Burk plot
Salmonella typhimurium [29] = assay: Genotoxicity in Salmonella typhimurium TA98 assessed as increase in revertant colonies at 1.25 mg/ml in presence of Sprague-Dawley rat liver S9 fraction by Ames test relative to basal level; type: toxicity, organism-based; settings: salmonella enterica subsp. enterica serovar typhimurium

Structure (SMILES): Clc1ccc(-c2csc(N/N=C/c3ccc(N4CCCC4)cc3)n2)cc1
- IC50 [1]: 45.1 µM
- inhibition (INH) [2]: > 50%
- inhibition (INH) [3]: > 50%
- Ratio IC50 (Homo sapiens): 16.9
- IC50 [4]: 761 µM

Structure (SMILES): N#Cc1ccc(-c2csc(N/N=C/c3ccc(N4CCOCC4)cc3)n2)cc1
- IC50 [1]: 54 µM
- inhibition (INH) [2]: > 50%
- inhibition (INH) [3]: > 50%
- Ratio IC50 (Homo sapiens): 0.795
- IC50 [4]: 42.9 µM

Structure (SMILES): Brc1ccc(-c2csc(N/N=C/c3ccc(N4CCOCC4)cc3)n2)cc1
- IC50 [1]: 14.6 µM
- inhibition (INH) [2]: > 50%
- Ratio IC50 (Homo sapiens): > 6.84
- IC50 [4]: > 100 µM

Structure (SMILES): Fc1ccc(-c2csc(N/N=C/c3ccc(N4CCCC4)cc3)n2)c(F)c1
- IC50 [1]: 15.6 µM
- inhibition (INH) [2]: > 50%
- inhibition (INH) [3]: > 50%
- Ratio IC50 (Homo sapiens): 9.03
- IC50 [4]: 141 µM

Stronger by IC50 [1], values ahead:

- IC50 [1]: 11.4 µM
- inhibition (INH) [2]: > 50%
- Ratio IC50 (Homo sapiens): > 87.8
- IC50 [4]: > 1000 µM
Structure (SMILES): C(=N\Nc1nc(-c2ccccc2)cs1)/c1ccc(N2CCOCC2)cc1

- IC50 [1]: 10.6 µM
- inhibition (INH) [2]: > 50%
- inhibition (INH) [3]: > 50%
- Ratio IC50 (Homo sapiens): 52.8
- IC50 [4]: 558 µM
Structure (SMILES): Clc1ccc(-c2csc(N/N=C/c3ccc(N4CCOCC4)cc3)n2)cc1

- IC50 [1]: 10.4 µM
- inhibition (INH) [2]: > 50%
- Ratio IC50 (Homo sapiens): > 96.2
- IC50 [4]: > 1000 µM
Structure (SMILES): Cc1ccc(-c2csc(N/N=C/c3ccc(N4CCOCC4)cc3)n2)cc1

- IC50 [1]: 0.011 µM
- inhibition (INH) [2]: > 50%
- inhibition (INH) [3]: > 50%
- Ratio IC50 (Homo sapiens): 1600
- IC50 [4]: 17.6 µM
- Ki [28]: 4.4 nM
Structure (SMILES): Fc1ccc(-c2csc(N/N=C/c3ccc(N4CCOCC4)cc3)n2)c(F)c1
- fold change (FC) (Salmonella typhimurium [5]): 0.64
- fold change (FC) (Salmonella typhimurium [6]): 1.08
- fold change (FC) (Salmonella typhimurium [7]): 0.36
- fold change (FC) (Salmonella typhimurium [8]): 0.61
- fold change (FC) (Salmonella typhimurium [9]): 0.3
- fold change (FC) (Salmonella typhimurium [10]): 1.34
- fold change (FC) (Salmonella typhimurium [11]): 0.45
- fold change (FC) (Salmonella typhimurium [12]): 0.61
- fold change (FC) (Salmonella typhimurium [13]): 1.59
- IC50 (NIH3T3): > 1 mM
- fold change (FC) (Salmonella typhimurium [14]): 0.45
- fold change (FC) (Salmonella typhimurium [15]): 0.5
- fold change (FC) (Salmonella typhimurium [16]): 0.33
- fold change (FC) (Salmonella typhimurium [17]): 1.4
- fold change (FC) (Salmonella typhimurium [18]): 1.14
- fold change (FC) (Salmonella typhimurium [19]): 0.5
- fold change (FC) (Salmonella typhimurium [20]): 0.22
- fold change (FC) (Salmonella typhimurium [21]): 1.34
- fold change (FC) (Salmonella typhimurium [22]): 1
- fold change (FC) (Salmonella typhimurium [23]): 1.07
- fold change (FC) (Salmonella typhimurium [24]): 0.5
- fold change (FC) (Salmonella typhimurium [25]): 1.08
- fold change (FC) (Salmonella typhimurium [26]): 0.59
- fold change (FC) (Salmonella typhimurium [27]): 1.4
- fold change (FC) (Salmonella typhimurium [29]): 2.5
